Measurements published in patent publication US7595320B2, “Hydrazinocarbonyl-thieno[2,3-C]pyrazoles, process for preparing them, compositions containing them and use thereof” (Aventis Pharma S.A., priority 2005, dated 2009).
Structures can show the parent of a compound that is named as a salt.

How the values were obtained:
Type in all cases: biochemical
Tie2 = molecular target: T1, Tie2 (Homo sapiens, UniProt Q02763); assay: Tie2 kinase test, phosphorylation of PLC with GST-Tie2; settings: GST-Tie2 intracellular domain 776-1124
T1 construct: amino acids of the intracellular domain 776-1124; made in house; host or cells: baculovirus expression (pFastBacGT vector)
T1 sequence (Q02763 776-1124): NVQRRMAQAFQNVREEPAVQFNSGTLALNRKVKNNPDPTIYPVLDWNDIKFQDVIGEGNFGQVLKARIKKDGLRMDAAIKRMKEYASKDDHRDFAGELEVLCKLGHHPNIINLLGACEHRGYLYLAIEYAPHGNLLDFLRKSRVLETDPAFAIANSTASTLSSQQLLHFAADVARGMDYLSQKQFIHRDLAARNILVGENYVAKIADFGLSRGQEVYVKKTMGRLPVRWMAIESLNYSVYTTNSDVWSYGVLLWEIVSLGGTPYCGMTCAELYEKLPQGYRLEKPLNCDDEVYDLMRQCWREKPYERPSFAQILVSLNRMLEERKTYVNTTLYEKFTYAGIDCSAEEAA

CDK2/cycline E = molecular target: T2, CDK2/cycline E (Homo sapiens, UniProt P24941); assay: CDK2/cyclineE Flashplate test in 96-well format; settings: CDK2/cycline E complex, 1 μM ATP
T2 construct: made in house; host or cells: Sf21 insect cells (baculovirus coinfection)
Summary of the method: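 Recombinant human CDK2/cyclin E (His-tagged cyclin E, coexpressed in Sf21 cells), 20 nM, phosphorylates biotinylated pRb peptide (10 μM) with 1 μM ATP plus [γ-33P]ATP in HEPES pH 7.5, MgCl2, DTT at 30 °C. Inhibitors tested at 10 μM down to 0.014 μM; 33P incorporation read by scintillation on streptavidin plates.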

Aurora2 = molecular target: T3, Aurora2 (Homo sapiens, UniProt O14965); assay: Aurora2 enzymatic test, NuMA phosphorylation with [33P]ATP, Flashplate; settings: whole recombinant protein, 1 μM ATP
T3 construct: Aurora2: whole recombinant protein comprising an N-terminal histidine tail; His tag (N); made in house; host or cells: E. coli
T3 sequence (O14965 1-403): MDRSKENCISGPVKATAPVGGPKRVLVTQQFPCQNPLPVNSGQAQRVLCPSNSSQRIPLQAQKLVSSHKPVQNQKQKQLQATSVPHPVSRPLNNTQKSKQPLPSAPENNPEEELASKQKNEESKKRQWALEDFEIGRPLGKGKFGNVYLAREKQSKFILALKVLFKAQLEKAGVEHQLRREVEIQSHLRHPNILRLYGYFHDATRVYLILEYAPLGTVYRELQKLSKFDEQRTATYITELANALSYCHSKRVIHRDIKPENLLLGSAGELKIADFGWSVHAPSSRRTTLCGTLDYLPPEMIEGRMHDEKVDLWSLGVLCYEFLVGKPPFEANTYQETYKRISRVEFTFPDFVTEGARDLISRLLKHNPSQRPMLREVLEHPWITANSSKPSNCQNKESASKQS
Summary of the method: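 Full-length His-tagged Aurora2 (E. coli, >82% pure) at 10 nM phosphorylated 500 nM His-NuMA fragment on Ni-chelate Flashplates. Conditions were pH 7.5 Tris buffer with 10 mM MgCl2, 1 μM ATP plus [33P]ATP, 30 min at 37 °C.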

Aurora1 = molecular target: T4, Aurora1 (Homo sapiens, UniProt Q96GD4); assay: Aurora1 enzymatic test, NuMA phosphorylation with [33P]ATP, Flashplate; settings: Aurora-B/INCENP-C3 recombinant complex, 1 μM ATP
T4 construct: His tag (N); made in house
T4 sequence (Q96GD4 whole entry, species assumed): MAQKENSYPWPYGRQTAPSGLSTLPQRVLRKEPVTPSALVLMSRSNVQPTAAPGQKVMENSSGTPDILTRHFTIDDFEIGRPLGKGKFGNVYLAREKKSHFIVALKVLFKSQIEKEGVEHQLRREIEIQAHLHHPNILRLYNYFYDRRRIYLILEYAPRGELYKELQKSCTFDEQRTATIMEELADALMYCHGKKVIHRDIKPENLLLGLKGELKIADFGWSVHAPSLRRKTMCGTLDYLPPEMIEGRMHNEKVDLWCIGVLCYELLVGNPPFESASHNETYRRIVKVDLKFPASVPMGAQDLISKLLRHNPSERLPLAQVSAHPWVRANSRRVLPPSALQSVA
T4 sequence (Q9NQS7 835-903 partner limits assumed, species assumed): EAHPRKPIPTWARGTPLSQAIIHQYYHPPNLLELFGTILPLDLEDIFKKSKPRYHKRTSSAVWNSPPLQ
Summary of the method: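 Recombinant His-tagged Aurora-B/INCENP-C3 complex (10 nM) phosphorylates 500 nM His-NuMA fragment with 1 µM ATP plus [33P]ATP, 30 minutes at 37° C in Tris pH 7.5 with 5 mM MgCl2, on nickel-chelate Flashplates. Incorporated 33P counted; percent inhibition versus enzyme control after no-enzyme background subtraction.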

IC50 (Tie2) [nM] | IC50 (CDK2/cycline E) [nM] | IC50 (Aurora2) [nM] | IC50 (Aurora1) [nM] | SMILES
230 | 93 | 35 | 335 | CN(NC(=O)c1cc2c(NC(=O)c3ccc(CN4CCCCC4)cc3)n[nH]c2s1)c1ccc(Cl)cc1 [Example 17b, N-[5-(N′-(4-chlorophenyl)-N′-methylhydrazinocarbonyl)-1H-thieno[2,3-c]-pyrazol-3-yl]-4-piperidin-1-ylmethylbenzamide]
3210 | 942 | 301 | 992 | CN1CCN(Cc2cccc(C(=O)Nc3n[nH]c4sc(C(=O)NN(C)c5ccccc5)cc34)c2)CC1 [Example 16a, N-[5-(N′-methyl-N′-phenylhydrazinocarbonyl)-1H-thieno[2,3-c]pyrazol-3-yl]-3-(4-methylpiperazin-1-ylmethyl)-benzamide]
301 | 82 | 34 | 160 | CN(NC(=O)c1cc2c(NC(=O)c3ccc(CN4CCCOCC4)cc3)n[nH]c2s1)c1ccc(Cl)cc1 [Example 21b, N-{5-[N′-(4-chlorophenyl)-N′-methylhydrazinocarbonyl]-1H-thieno[2,3-c]pyrazol-3-yl}-4-perhydro-1,4-oxazepin-4-ylmethylbenzamide]
431 | 143 | 65 | 199 | CCN(CC)CCNCc1ccc(C(=O)Nc2n[nH]c3sc(C(=O)NN(C)c4ccccc4)cc23)cc1 [Example 23a, 4-[(2-diethylaminoethylamino)methyl]-N-[5-(N′-methyl-N′-phenylhydrazinocarbonyl)-1H-thieno[2,3-c]pyrazol-3-yl]-benzamide]
624 | 181 | 14 | 122 | CN(NC(=O)c1cc2c(NC(=O)c3ccc(CN4CCCC4)cc3)n[nH]c2s1)c1ccccc1 [Example 18a, N-[5-(N′-methyl-N′-phenylhydrazinocarbonyl)-1H-thieno[2,3-c]pyrazol-3-yl]-4-pyrrolidin-1-ylmethylbenzamide]
679 | 151 | 23 | 141 | CN(NC(=O)c1cc2c(NC(=O)c3ccc(CN4CCNCC4)cc3)n[nH]c2s1)c1ccccc1 [Example 13a, N-[5-(N′-methyl-N′-phenylhydrazinocarbonyl)-1H-thieno[2,3-c]pyrazol-3-yl]-4-piperazin-1-ylmethylbenzamide]
2210 | 717 | 81 | 147 | CN(NC(=O)c1cc2c(NC(=O)c3cccc(CN4CCOCC4)c3)n[nH]c2s1)c1ccccc1 [Example 22a, N-[5-(N′-methyl-N′-phenylhydrazinocarbonyl)-1H-thieno[2,3-c]pyrazol-3-yl]-3-morpholin-4-ylmethylbenzamide]

More lines, now with the values behind:

SMILES | IC50 (Tie2) [nM] | IC50 (CDK2/cycline E) [nM] | IC50 (Aurora2) [nM] | IC50 (Aurora1) [nM]
COc1ccc(C(=O)Nc2n[nH]c3sc(C(=O)NNc4ccccc4C)cc23)cc1 [Example 7, 4-methoxy-N-[5-(N′-o-tolylhydrazinocarbonyl)-1H-thieno[2,3-c]pyrazol-3-yl]benzamide] | 186 | 428 | 17 | 16
CN1CCN(c2ccc(C(=O)Nc3n[nH]c4sc(C(=O)NN(CC5CCC5)c5ccc(Cl)cc5)cc34)cc2)CC1 [Example 36, N-{5-[N′-(4-chlorophenyl)-N′-cyclobutylmethylhydrazinocarbonyl]-1H-thieno[2,3-c]pyrazol-3-yl}-4-(4-methylpiperazin-1-yl)-benzamide] | 6 | 1920 | 5 | 9
CN1CCN(c2ccc(C(=O)Nc3n[nH]c4sc(C(=O)NN5CCCCC5)cc34)cc2)CC1 [Example 31, N-(piperidin-1-yl)-3-[4-(4-methylpiperazin-1-yl)benzoylamino]-1H-thieno[2,3-c]pyrazole-5-carboxamide] | 3060 | 275 | 26 | 96
CCN(NC(=O)c1cc2c(NC(=O)c3ccc(N4CCN(C)CC4)cc3)n[nH]c2s1)c1ccccc1C [Example 39, N-[5-(N′-ethyl-N′-o-tolylhydrazinocarbonyl)-1H-thieno[2,3-c]pyrazol-3-yl]-4-(4-methylpiperazin-1-yl)benzamide] | 22 | 53 | 27 | 15
COCCN(NC(=O)c1cc2c(NC(=O)c3ccc(N4CCN(C)CC4)cc3)n[nH]c2s1)c1ccc(F)cc1 [Example 38, N-{5-[N′-(4-fluorophenyl)-N′-(2-methoxyethyl)-hydrazinocarbonyl]-1H-thieno[2,3-c]pyrazol-3-yl}-4-(4-methylpiperazin-1-yl)-benzamide] | 58 | 214 | 4 | 21
CN1CCN(c2ccc(C(=O)Nc3n[nH]c4sc(C(=O)NN(Cc5ccccc5)c5ccccc5)cc34)cc2)CC1 [Example 34, N-[5-(N′-benzyl-N′-phenylhydrazinocarbonyl)-1H-thieno[2,3-c]pyrazol-3-yl]-4-(4-methylpiperazin-1-yl)benzamide] | 38 | 1580 | 5 | 13
CC1CN(Cc2ccc(C(=O)Nc3n[nH]c4sc(C(=O)NN(C)c5ccccc5)cc34)cc2)CC(C)N1 (stereo not shown) [Example 11a, 4-(3,5-dimethylpiperazin-1-ylmethyl)-N-[5-(N′-methyl-N′-phenylhydrazinocarbonyl)-1H-thieno[2,3-c]pyrazol-3-yl]benzamide] | 520 | 156 | 31 | 178
CN1CCN(Cc2ccc(C(=O)Nc3n[nH]c4sc(C(=O)NN(C)c5ccccc5)cc34)cc2)CC1 [Example 10, N-[5-(N′-methyl-N′-phenylhydrazinocarbonyl)-1H-thieno[2,3-c]pyrazol-3-yl]-4-(4-methylpiperazin-1-ylmethyl)benzamide] | 367 | 92 | 46 | 102
CN1CCN(c2ccc(C(=O)Nc3n[nH]c4sc(C(=O)NNCc5ccccc5)cc34)cc2)CC1 [Example 32, N-[5-(N′-benzylhydrazinocarbonyl)-1H-thieno[2,3-c]pyrazol-3-yl]-4-(4-methylpiperazin-1-yl)benzamide] | 38 | 109 | 4 | 25
CCN(NC(=O)c1cc2c(NC(=O)c3ccc(N4CCN(C)CC4)cc3)n[nH]c2s1)c1cccc(C)c1 [Example 40, N-[5-(N′-ethyl-N′-m-tolylhydrazinocarbonyl)-1H-thieno[2,3-c]pyrazol-3-yl]-4-(4-methylpiperazin-1-yl)benzamide] | 25 | 105 | 17 | 11
CCN(NC(=O)c1cc2c(NC(=O)c3ccc(N4CCN(C)CC4)cc3)n[nH]c2s1)c1cccc(Br)c1 [Example 43, N-{5-[N′-(3-bromophenyl)-N′-ethylhydrazinocarbonyl]-1H-thieno[2,3-c]pyrazol-3-yl}-4-(4-methylpiperazin-1-yl)benzamide] | 8 | 32 | 1 | 5
CC(C)N(Cc1ccc(C(=O)Nc2n[nH]c3sc(C(=O)NN(C)c4ccccc4)cc23)cc1)C(C)C [Example 25, 4-[(diisopropylamino)methyl]-N-[5-(N′-methyl-N′-phenylhydrazinocarbonyl)-1H-thieno[2,3-c]pyrazol-3-yl]benzamide trifluoroacetate] | 328 | 317 | 25 | 249
COc1ccc(C(=O)Nc2n[nH]c3sc(C(=O)NN(C)c4ccccc4)cc23)cc1 [Example 2] | 92 | 97 | 9 | 9
CN1CCN(c2ccc(C(=O)Nc3n[nH]c4sc(C(=O)NN(C)c5ccccc5)cc34)cc2)CC1 [Example 35, N-[5-(N′-methyl-N′-phenylhydrazinocarbonyl)-1H-thieno[2,3-c]pyrazol-3-yl]-4-(4-methylpiperazin-1-yl)benzamide] | 29 | 121 | 4 | 4
CN1CCCN(Cc2ccc(C(=O)Nc3n[nH]c4sc(C(=O)NN(C)c5ccccc5)cc34)cc2)CC1 [Example 12a, 4-(4-methylperhydro-1,4-diazepin-1-ylmethyl)-N-[5-(N′-methyl-N′-phenylhydrazinocarbonyl)-1H-thieno[2,3-c]-pyrazol-3-yl]benzamide] | 564 | 126 | 31 | 128
